How the values were obtained:
Experiment in all cases: relative viability (nuclei count vs DMSO), 5 days (fraction); higher = more cells survive
[1] = compound: Cn1nnc2c(C(N)=O)ncn2c1=O [Temozolomide] + CCNC(=O)c1noc(-c2cc(C(C)C)c(O)cc2O)c1-c1ccc(CN2CCOCC2)cc1 [Luminespib] (partner 0.01 µM)
Summary of the method: (§1)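 Dosing by pin tool came one day after lung cancer cell lines were seeded in 1536-well plates, using either one drug or a fixed anchor-drug dose plus five library-drug doses (not always all listed) in √10 steps. After 5 days, nuclei were counted on 4× images. Relative viability is treated-well nuclei count divided by vehicle-well nuclei count, and values are medians of duplicate plates.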

AZD5582 + Vorinostat = compound: C[C@@H](C(=O)N[C@@H](C1CCCCC1)C(=O)N2CCC[C@H]2C(=O)N[C@@H]3[C@@H](CC4=CC=CC=C34)OCC#CC#CCO[C@@H]5CC6=CC=CC=C6[C@@H]5NC(=O)[C@@H]7CCCN7C(=O)[C@H](C8CCCCC8)NC(=O)[C@H](C)NC)NC [AZD5582] + O=C(CCCCCCC(=O)Nc1ccccc1)NO [Vorinostat] (partner 1 µM)
Summary of the method: as §1

Temozolomide + Olaparib = compound: Cn1nnc2c(C(N)=O)ncn2c1=O [Temozolomide] + O=C(c1cc(Cc2n[nH]c(=O)c3ccccc23)ccc1F)N1CCN(C(=O)C2CC2)CC1 [Olaparib] (partner 8 µM)
Summary of the method: as §1

[2] = compound: Cn1nnc2c(C(N)=O)ncn2c1=O [Temozolomide] + C[C@]1(O)C[C@@H](c2nc(-c3ccc4ccc(-c5ccccc5)nc4c3)c3c(N)nccn32)C1 [Linsitinib] (partner 1 µM)
Summary of the method: as §1

Cell Line	relative viability ([1]; first compound 0.2 µM)	relative viability ([1]; first compound 0.6325 µM)	relative viability ([1]; first compound 2 µM)	relative viability ([1]; first compound 6.325 µM)	relative viability ([1]; first compound 20 µM)	relative viability (AZD5582 + Vorinostat; first compound 0.001581 µM)	relative viability (AZD5582 + Vorinostat; first compound 0.005 µM)	relative viability (AZD5582 + Vorinostat; first compound 0.01581 µM)	relative viability (AZD5582 + Vorinostat; first compound 0.05 µM)	relative viability (Temozolomide + Olaparib; first compound 0.2 µM)	relative viability (Temozolomide + Olaparib; first compound 0.6325 µM)	relative viability (Temozolomide + Olaparib; first compound 2 µM)	relative viability (Temozolomide + Olaparib; first compound 6.325 µM)	relative viability (Temozolomide + Olaparib; first compound 20 µM)	relative viability ([2]; first compound 0.2 µM)	relative viability ([2]; first compound 0.6325 µM)	relative viability ([2]; first compound 2 µM)	relative viability ([2]; first compound 6.325 µM)	relative viability ([2]; first compound 20 µM)
EMC-BAC-2	1.11	1.18	1.21	1.12	1.23	0.406	0.474	0.375	0.546	0.667	0.504	0.455	0.367	0.271	0.719	0.85	0.766	0.799	0.749
NCI-H1651	0.956	0.935	0.578	0.662	1.05	0.525	0.557	0.56	0.584	0.187	0.177	0.173	0.145	0.0979	0.998	0.99	1.14	1.04	0.969
HCC-827	0.52	0.67	0.638	0.382	0.191	0.771	0.892	0.694	0.822	0.749	0.645	0.665	0.432	0.107	0.998	0.959	0.954	0.968	0.158
SW 1573	0.295	0.331	0.273	0.206	0.28	0.492	0.865	1.12	1.12	0.585	0.534	0.424	0.302	0.236	0.74	0.738	0.737	0.579	0.659
NCI-H460	0.0394	0.0362	0.0277	0.0344	0.0293	0.655	0.686	0.697	1.01	0.488	0.47	0.366	0.317	0.214	0.959	0.801	0.79	0.727	0.877
NCI-H1648						0.415	0.441		0.476		1.09	0.654	0.826	0.468					
NCI-H647	0.17	0.174	0.197	0.114	0.0944	0.353	0.515	0.635	0.585	0.721	0.616	0.5	0.176	0.0916	1.27	1.2	1.15	0.776	0.295
NCI-H322M		0.935	0.968	0.786	0.712	0.924	1.01	0.97	1.17	0.671	0.734	0.727	0.692	0.555		1.02	1.02	0.959	0.665
NCI-H1666	0.976	0.993	0.874	0.677	0.701	0.848	0.891	1.05	0.958	0.731	0.729	0.771	0.639	0.604	0.69	0.713	0.616	0.688	0.482
NCI-H2342	0.633	0.674	0.706	0.629	0.637	0.789	0.778	0.751	0.785	0.344	0.411	0.454	0.386	0.36					
ChaGo-K-1	0.679	0.625	0.785	0.557	0.556	0.718	0.767	0.711	0.739	0.437	0.417	0.4	0.315	0.228					
CAL-12T	0.27	0.518	0.862	0.115	0.723	0.533	0.703	0.644	0.754	0.865	0.754	0.775	0.697	0.606	0.627	0.799	0.841	0.778	0.698
LOU-NH91	0.341	0.341	0.323	0.325	0.361	0.867	0.872	0.794	0.842	0.8	0.936	0.913	0.863	0.547	0.534	0.955	1.01	0.932	0.505
NCI-H1975		0.23	0.487	0.131	0.172	0.699	0.872	0.687	0.885	0.779	0.77	0.798	0.744	0.699	0.961	1.01	0.922	0.903	0.9
LC-2-ad	0.928	1.05	1.09	0.899	0.988	0.697	0.726	0.704	0.804	0.671	0.72	0.696	0.591	0.468	0.795	0.823	0.808	0.751	0.807

From the supplement of paper PMC10307832
